Reference: patent publication US7074789B2, “Kinase inhibitors” (Amgen Inc., priority 1999, dated 2006)

What was measured:
Assay type in all cases: biochemical
[1] = molecular target: T1, Lyn (Homo sapiens, UniProt P07948); assay: Kinase inhibition assay (33P transfer), Lyn; details: Table 6, Lyn-1 kinase inhibition class
T1 construct: Kinases are expressed as either kinase domains or full length constructs; made in house
Summary of the method: (§1)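 Kinase domains or full-length enzymes, GST- or polyHis-tagged, were expressed in E. coli or baculovirus High Five cells and affinity-purified. Transfer of 33PO4 from ATP onto plate-bound poly(Glu,Tyr) 4:1 or poly(Arg,Ser) 3:1 was counted by liquid scintillation after a 0.5% phosphoric acid wash. IC50 = concentration halving incorporation.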

[2] = molecular target: T2, Flt-1 (Homo sapiens, UniProt P17948); assay: Kinase inhibition assay (33P transfer), Flt-1
T2 construct: Kinases are expressed as either kinase domains or full length constructs; made in house
Summary of the method: as §1

[3] = molecular target: T3, Kdr (Homo sapiens, UniProt P35968); assay: Kinase inhibition assay (33P transfer), Kdr; details: Table 3; read-out: KDR-1
T3 construct: Kinases are expressed as either kinase domains or full length constructs; made in house
Summary of the method: (§2)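 Steps: express kinase as GST or polyHistidine fusion in E. coli or High Five cells; optionally co-express or mix with regulatory polypeptides; incubate with 33P-ATP and plate-attached poly(Glu,Tyr) 4:1 or poly(Arg,Ser) 3:1; wash with 0.5% phosphoric acid; count by liquid scintillation.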

[4] = molecular target: T4, EPHB4 (Homo sapiens, UniProt P54760); assay: Kinase inhibition assay (33P transfer), EPHB4; details: read-out: EPHB4-1
T4 construct: Kinases are expressed as either kinase domains or full length constructs; made in house
T4 sequence (P54760 16-987): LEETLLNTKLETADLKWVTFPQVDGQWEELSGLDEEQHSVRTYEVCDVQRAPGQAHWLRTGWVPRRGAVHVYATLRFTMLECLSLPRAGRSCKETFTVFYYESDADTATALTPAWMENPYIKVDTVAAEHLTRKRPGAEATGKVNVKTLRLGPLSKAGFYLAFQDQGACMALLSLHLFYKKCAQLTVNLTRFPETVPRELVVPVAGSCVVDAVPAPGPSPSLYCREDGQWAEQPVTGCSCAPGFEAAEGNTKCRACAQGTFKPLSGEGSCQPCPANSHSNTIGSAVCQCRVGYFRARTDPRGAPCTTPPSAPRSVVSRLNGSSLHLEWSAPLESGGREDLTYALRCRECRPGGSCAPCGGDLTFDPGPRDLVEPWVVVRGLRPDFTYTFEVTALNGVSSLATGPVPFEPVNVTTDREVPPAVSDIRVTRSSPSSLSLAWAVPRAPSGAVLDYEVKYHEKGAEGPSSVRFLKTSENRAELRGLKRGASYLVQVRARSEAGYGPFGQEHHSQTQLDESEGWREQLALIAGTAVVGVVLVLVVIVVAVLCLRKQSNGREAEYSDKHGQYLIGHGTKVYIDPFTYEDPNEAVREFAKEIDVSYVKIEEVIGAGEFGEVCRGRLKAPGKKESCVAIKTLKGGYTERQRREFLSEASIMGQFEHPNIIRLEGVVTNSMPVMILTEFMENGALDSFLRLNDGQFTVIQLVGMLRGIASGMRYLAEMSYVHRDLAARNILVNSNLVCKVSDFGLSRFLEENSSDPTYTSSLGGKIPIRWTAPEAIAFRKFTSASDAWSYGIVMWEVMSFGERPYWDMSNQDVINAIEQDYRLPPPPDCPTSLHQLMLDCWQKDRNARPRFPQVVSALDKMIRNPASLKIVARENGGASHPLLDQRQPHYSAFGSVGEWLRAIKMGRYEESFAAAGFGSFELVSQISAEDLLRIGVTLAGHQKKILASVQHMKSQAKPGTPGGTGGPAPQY

[5] = molecular target: T5, Hck-1 (Homo sapiens, UniProt P08631); assay: Kinase inhibition assay (33P transfer), Hck; details: Table 6, Hck-1 kinase inhibition class
T5 construct: Kinases are expressed as either kinase domains or full length constructs; made in house

[6] = molecular target: T6, Src (Homo sapiens, UniProt P12931); assay: Kinase inhibition assay (33P transfer), Src; details: Table 6, Src-1 kinase inhibition class
T6 construct: Kinases are expressed as either kinase domains or full length constructs; made in house
Summary of the method: as §1

[7] = molecular target: T7, Zap-70 (Homo sapiens, UniProt P43403); assay: Kinase inhibition assay (33P transfer), Zap-70; details: Table 3; read-out: Zap-1
T7 construct: Kinases are expressed as either kinase domains or full length constructs; made in house
T7 sequence (P43403 1-619): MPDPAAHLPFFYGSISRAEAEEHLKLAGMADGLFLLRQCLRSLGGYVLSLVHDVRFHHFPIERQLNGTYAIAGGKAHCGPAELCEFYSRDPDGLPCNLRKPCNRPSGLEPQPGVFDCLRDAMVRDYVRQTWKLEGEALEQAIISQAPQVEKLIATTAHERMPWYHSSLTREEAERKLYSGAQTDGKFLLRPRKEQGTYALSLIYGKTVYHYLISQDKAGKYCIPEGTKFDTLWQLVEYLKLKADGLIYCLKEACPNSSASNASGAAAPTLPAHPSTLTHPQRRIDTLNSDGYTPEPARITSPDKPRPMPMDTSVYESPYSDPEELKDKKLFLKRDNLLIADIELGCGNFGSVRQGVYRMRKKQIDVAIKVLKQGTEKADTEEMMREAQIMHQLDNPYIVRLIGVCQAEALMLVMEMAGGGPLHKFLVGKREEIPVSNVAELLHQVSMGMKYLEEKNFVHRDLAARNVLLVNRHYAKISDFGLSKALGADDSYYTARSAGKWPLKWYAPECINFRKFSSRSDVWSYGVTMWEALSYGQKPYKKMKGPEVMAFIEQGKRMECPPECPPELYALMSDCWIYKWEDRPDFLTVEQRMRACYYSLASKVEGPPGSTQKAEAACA
Summary of the method: as §2

[8] = molecular target: T8, ErbB4 (Homo sapiens, UniProt Q15303); assay: Kinase inhibition assay (33P transfer), ErbB4; details: read-out: ErbB4-1
T8 construct: Kinases are expressed as either kinase domains or full length constructs; made in house
T8 sequence (Q15303 26-1308, species assumed): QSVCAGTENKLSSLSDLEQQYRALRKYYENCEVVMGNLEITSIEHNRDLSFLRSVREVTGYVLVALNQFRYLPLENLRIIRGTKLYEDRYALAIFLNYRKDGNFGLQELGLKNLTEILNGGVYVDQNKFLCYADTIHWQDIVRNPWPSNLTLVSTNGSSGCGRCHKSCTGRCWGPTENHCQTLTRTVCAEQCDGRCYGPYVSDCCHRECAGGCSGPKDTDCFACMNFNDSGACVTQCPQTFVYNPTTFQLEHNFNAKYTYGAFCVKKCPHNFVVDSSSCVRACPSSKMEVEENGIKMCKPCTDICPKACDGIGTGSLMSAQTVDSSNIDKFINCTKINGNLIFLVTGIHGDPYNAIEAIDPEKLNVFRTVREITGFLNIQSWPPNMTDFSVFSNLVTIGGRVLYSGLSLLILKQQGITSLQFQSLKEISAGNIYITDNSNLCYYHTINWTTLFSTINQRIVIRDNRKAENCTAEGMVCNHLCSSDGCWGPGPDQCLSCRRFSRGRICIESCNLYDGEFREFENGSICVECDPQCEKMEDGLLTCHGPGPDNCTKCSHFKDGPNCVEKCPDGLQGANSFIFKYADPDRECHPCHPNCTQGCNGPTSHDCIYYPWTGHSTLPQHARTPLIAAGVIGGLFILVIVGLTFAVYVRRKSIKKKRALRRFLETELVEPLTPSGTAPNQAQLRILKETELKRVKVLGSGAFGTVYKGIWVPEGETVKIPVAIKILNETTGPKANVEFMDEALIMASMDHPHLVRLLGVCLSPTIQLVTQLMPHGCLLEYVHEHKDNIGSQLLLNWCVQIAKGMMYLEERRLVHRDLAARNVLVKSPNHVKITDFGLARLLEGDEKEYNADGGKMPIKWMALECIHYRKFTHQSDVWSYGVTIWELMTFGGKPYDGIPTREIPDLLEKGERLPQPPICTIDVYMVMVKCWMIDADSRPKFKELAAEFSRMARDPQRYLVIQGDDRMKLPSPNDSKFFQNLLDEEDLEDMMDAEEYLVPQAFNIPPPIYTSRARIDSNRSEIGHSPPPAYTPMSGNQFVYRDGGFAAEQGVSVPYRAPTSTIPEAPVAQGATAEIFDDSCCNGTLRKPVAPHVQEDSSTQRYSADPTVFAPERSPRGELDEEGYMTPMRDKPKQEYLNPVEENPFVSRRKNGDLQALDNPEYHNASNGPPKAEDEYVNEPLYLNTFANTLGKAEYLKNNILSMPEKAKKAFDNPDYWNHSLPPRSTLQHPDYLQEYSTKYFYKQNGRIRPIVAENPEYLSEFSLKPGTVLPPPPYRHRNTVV

T1 sequence (P07948 whole entry, species assumed, the tested form may be a part): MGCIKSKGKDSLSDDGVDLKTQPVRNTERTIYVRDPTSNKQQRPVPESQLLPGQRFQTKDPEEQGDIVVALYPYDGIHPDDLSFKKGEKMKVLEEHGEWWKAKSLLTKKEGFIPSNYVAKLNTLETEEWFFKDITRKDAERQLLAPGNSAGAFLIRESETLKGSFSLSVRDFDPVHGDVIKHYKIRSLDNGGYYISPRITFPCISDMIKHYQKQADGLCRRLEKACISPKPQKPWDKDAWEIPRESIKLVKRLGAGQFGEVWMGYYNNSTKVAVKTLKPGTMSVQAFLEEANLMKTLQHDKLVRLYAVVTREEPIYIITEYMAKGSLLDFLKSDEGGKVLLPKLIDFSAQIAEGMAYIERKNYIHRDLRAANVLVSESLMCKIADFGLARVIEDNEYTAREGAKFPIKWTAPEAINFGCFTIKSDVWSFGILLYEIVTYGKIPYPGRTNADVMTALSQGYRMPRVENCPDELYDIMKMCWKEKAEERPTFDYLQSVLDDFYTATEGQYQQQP
T3 sequence (P35968 20-1356, species assumed): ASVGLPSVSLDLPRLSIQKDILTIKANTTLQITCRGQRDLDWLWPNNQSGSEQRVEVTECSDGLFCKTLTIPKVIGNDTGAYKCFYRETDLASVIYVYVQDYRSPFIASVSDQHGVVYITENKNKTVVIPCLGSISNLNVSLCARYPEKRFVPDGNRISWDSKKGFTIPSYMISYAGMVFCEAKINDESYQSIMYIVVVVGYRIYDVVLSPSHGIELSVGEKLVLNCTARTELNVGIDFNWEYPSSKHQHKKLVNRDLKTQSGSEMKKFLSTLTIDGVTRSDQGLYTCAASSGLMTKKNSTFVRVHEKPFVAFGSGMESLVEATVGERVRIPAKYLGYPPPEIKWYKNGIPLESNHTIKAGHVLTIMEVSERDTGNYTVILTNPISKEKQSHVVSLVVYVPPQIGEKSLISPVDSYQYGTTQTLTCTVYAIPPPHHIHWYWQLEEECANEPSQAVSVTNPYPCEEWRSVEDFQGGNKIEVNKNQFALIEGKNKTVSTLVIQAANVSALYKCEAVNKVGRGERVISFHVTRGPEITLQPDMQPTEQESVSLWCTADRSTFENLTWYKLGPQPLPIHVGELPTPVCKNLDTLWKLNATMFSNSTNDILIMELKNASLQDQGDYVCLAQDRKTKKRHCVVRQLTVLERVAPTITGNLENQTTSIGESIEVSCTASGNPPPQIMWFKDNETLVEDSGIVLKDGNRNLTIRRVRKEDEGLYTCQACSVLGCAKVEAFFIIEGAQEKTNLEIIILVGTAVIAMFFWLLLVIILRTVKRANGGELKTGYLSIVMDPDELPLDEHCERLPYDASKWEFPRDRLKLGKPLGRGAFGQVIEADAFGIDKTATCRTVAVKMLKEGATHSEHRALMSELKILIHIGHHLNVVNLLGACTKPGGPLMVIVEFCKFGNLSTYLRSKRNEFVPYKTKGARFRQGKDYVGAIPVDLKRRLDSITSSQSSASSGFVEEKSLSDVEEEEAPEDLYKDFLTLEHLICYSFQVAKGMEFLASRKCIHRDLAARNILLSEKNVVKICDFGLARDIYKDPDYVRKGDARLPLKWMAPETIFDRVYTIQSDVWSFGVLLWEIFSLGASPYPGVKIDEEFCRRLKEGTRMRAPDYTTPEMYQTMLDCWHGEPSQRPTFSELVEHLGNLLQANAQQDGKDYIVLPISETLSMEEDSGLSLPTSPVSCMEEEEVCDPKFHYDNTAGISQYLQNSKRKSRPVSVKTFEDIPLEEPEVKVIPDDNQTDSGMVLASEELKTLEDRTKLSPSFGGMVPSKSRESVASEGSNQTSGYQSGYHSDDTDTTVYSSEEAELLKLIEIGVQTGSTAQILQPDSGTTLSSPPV
T2 sequence (P17948 27-1338, species assumed): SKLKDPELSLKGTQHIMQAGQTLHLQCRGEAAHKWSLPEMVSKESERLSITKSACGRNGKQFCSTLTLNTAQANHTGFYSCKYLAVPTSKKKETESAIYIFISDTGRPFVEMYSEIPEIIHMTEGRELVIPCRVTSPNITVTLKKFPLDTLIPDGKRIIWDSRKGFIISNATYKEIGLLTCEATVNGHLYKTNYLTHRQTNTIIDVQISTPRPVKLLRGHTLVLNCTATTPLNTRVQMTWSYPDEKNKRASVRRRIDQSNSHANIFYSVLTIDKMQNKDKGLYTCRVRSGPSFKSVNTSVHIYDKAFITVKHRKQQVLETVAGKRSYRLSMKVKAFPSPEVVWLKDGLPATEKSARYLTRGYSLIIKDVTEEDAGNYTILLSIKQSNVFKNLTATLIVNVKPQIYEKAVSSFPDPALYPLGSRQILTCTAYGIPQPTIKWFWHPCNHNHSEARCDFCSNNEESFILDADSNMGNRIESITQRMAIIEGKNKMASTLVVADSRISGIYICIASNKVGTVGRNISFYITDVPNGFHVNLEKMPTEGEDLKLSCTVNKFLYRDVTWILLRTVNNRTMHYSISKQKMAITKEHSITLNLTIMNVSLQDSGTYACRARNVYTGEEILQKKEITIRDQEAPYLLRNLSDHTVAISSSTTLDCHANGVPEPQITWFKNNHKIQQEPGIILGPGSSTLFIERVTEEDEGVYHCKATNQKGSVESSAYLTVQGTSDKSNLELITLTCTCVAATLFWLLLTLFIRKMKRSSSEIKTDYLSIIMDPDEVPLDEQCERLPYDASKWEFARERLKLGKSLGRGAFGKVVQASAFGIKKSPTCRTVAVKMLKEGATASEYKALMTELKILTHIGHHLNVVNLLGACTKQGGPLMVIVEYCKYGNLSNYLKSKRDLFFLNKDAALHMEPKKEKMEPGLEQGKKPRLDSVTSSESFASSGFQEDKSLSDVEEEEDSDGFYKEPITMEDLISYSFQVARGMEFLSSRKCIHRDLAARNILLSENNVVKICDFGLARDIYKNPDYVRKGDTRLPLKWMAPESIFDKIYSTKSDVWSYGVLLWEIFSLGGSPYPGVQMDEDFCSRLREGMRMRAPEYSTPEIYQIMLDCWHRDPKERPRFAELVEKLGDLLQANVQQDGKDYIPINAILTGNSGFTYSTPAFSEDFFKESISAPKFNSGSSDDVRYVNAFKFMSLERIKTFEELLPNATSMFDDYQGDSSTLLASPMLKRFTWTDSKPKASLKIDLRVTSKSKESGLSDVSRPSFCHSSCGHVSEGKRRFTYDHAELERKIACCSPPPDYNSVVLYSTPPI
T5 sequence (P08631 whole entry, the tested form may be a part): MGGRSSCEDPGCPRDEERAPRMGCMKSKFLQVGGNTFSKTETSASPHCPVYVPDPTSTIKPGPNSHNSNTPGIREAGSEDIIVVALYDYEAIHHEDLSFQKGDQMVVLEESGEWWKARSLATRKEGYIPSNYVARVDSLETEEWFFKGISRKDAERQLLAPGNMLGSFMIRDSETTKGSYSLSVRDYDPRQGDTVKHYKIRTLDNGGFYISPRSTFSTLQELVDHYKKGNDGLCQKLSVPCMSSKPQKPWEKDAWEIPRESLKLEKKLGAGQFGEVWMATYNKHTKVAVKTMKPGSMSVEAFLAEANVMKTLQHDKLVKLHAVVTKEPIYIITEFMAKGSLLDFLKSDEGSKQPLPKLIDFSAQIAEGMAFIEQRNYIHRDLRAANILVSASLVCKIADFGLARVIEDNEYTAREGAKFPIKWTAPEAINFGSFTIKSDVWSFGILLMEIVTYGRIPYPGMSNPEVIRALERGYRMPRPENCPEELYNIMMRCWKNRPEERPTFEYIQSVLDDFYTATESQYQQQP

| Structure (SMILES) | IC50 [1] | IC50 [2] | IC50 [3] | IC50 [4] | IC50 [5] | IC50 [6] | IC50 [7] | IC50 [8] |
| --- | --- | --- | --- | --- | --- | --- | --- | --- |
| O=C1OCc2ccc(Nc3ncnc(Nc4cc(-c5ccco5)n[nH]4)n3)cc21 [Compound 364] | 9.32 to 12 µM | 1.07 to 6.39 µM | < 1.07 µM | 1.07 to 6.39 µM | > 12 µM | > 12 µM | > 12 µM | > 12 µM |
| COc1cc(Nc2ncnc(-n3c(Cl)nc4ccccc43)n2)cc(OC)c1OC [Compound 378] | 0.969 to 5.81 µM | 0.969 to 5.81 µM | < 0.969 µM | > 10.9 µM | > 10.9 µM | 5.81 to 8.48 µM | > 10.9 µM | > 10.9 µM |
